Assay results reported in patent publication US20250346585A1 (Alexion Pharmaceuticals, Inc., priority 2022, published 2025).

Each compound was assayed against Human complement C1s enzyme (Homo sapiens (Human), UniProt P09871) (assay: Human C1s enzyme assay). Details: Human C1s enzyme assay of Example 3; read-out: IC50 (Stars).
Assay type: biochemical
Protocol: Human complement C1s enzyme (purified from human serum, Complement Technology, Inc.) at 1.16 nM final concentration was incubated with test compound at various concentrations for 5 min at room temperature in 50 mM Tris, 1 M NaCl, pH 7.5. A synthetic substrate Z-L-Lys-SBzl and DTNB (Ellman's reagent) were added to final concentrations of 100 μM each. Absorbance at 405 nm (A405) was recorded at 30 second intervals for 30 min using a microplate spectrophotometer. IC50 values were calculated by nonlinear regression of complement C1s reaction rates as a function of test compound concentration.

Sequence of Human complement C1s enzyme (P09871 438-688 limits assumed): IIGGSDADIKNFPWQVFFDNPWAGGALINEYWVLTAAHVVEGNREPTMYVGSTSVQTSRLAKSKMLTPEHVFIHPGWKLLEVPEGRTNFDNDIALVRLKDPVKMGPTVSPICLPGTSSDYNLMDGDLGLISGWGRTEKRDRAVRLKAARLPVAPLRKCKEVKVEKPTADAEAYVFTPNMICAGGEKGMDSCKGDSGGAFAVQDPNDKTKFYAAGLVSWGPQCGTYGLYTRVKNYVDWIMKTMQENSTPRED
Sequence of Human complement C1s enzyme (P09871 16-437 partner limits assumed): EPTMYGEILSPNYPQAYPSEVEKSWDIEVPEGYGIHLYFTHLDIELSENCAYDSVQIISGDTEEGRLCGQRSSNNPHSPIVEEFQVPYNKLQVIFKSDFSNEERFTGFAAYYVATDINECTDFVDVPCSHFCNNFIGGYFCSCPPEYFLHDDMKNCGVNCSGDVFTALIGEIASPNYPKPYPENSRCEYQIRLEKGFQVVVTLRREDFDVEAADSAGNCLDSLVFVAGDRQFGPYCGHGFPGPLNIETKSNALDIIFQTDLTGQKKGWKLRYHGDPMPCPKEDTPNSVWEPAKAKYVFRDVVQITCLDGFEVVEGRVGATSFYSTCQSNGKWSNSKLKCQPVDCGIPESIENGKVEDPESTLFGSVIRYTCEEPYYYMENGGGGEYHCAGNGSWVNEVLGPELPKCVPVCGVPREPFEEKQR

IC50 [µM]	SMILES
< 0.1	C[C@@H](NC(=O)[C@@H]1CC2(CN1C(=O)CNC(=O)c1cccc(-c3ccc(F)cc3)c1)OCCO2)c1cc(C(=N)N)cs1 [Compound 112, (S)—N—((R)-1-(4-carbamimidoylthiophen-2-yl)ethyl)-7-((4′-fluoro-[1,1′-biphenyl]-3-carbonyl)glycyl)-1,4-dioxa-7-azaspiro[4.4]nonane-8-carboxamide]
< 0.1	Cc1cccc2c1C(F)(F)c1ccc(C(=O)NCC(=O)N3CC4(C[C@H]3C(=O)N[C@H](C)c3cc(C(=N)N)cs3)OCCO4)cc1-2 [Compound 182, (S)—N—((R)-1-(4-carbamimidoylthiophen-2-yl)ethyl)-7-((9,9-difluoro-8-methyl-9H-fluorene-3-carbonyl)glycyl)-1,4-dioxa-7-azaspiro[4.4]nonane-8-carboxamide]

The next lines start with the compound.

SMILES	IC50 [µM]
C[C@@H](NC(=O)[C@@H]1C[C@@H](OC(F)F)CN1C(=O)CNC(=O)c1ccc(Oc2ccc(C(F)F)cc2)cc1)c1cc(C(=N)N)cs1 [Compound 65, (2S,4R)—N—((R)-1-(4-carbamimidoylthiophen-2-yl)ethyl)-4-(difluoromethoxy)-1-((4-(4-(difluoromethyl)phenoxy)benzoyl)glycyl)pyrrolidine-2-carboxamide]	< 0.1
CC1c2ccccc2-c2cc(C(=O)NCC(=O)N3CC4(C[C@H]3C(=O)N[C@H](C)c3cc(C(=N)N)cs3)OCCO4)ccc21 (stereo partly drawn) [Compound 99, (8S)—N-[(1R)-1-(4-carbamimidoylthiophen-2-yl)ethyl]-7-{2-[(9-methyl-9H-fluoren-3-yl)formamido]acetyl}-1,4-dioxa-7-azaspiro[4.4]nonane-8-carboxamide]	< 0.1
Cc1ccc(-c2cnc(C(=O)NCC(=O)N3CC4(C[C@H]3C(=O)NCc3cc(C(=N)N)cs3)OCCO4)c(F)c2)cc1 [Compound 102, (S)—N-((4-carbamimidoylthiophen-2-yl)methyl)-7-((3-fluoro-5-(p-tolyl)picolinoyl)glycyl)-1,4-dioxa-7-azaspiro[4.4]nonane-8-carboxamide]	< 0.1
C[C@@H](NC(=O)[C@@H]1C[C@]2(C)C[C@@H]2N1C(=O)CNC(=O)c1ccc2c(c1)C(F)(F)c1ccccc1-2)c1cc(C(=N)N)cs1 [Compound 121, (1S,3S,5S)—N-[(1R)-1-(4-carbamimidoylthiophen-2-yl)ethyl]-2-{2-[(9,9-difluorofluoren-2-yl)formamido]acetyl}-5-methyl-2-azabicyclo[3.1.0]hexane-3-carboxamide]	< 0.1
C[C@@H](NC(=O)[C@@H]1CC2(CN1C(=O)CNC(=O)c1ccc3c(c1)-c1ccccc1-3)OCCO2)c1cc(C(=N)N)cs1 [Compound 95, (S)-7-((biphenylene-2-carbonyl)glycyl)-N—((R)-1-(4-carbamimidoylthiophen-2-yl)ethyl)-1,4-dioxa-7-azaspiro[4.4]nonane-8-carboxamide]	< 0.1
C[C@@H](NC(=O)[C@@H]1C[C@@H](OC(F)F)CN1C(=O)CNC(=O)c1ccc(Oc2ccc(F)cc2)cc1)c1cc(C(=N)N)cs1 [Compound 8, (2S,4R)—N—((R)-1-(4-carbamimidoylthiophen-2-yl)ethyl)-4-(difluoromethoxy)-1-((4-(4-fluorophenoxy)benzoyl)glycyl)pyrrolidine-2-carboxamide]	< 0.1
COC[C@@]1(F)C[C@@H](C(=O)N[C@H](C)c2cc(C(=N)N)cs2)N(C(=O)CNC(=O)c2ccc(Oc3ccccc3)c(C)c2)C1 [Compound 34, (2S,4R)—N—((R)-1-(4-carbamimidoylthiophen-2-yl)ethyl)-4-fluoro-4-(methoxymethyl)-1-((3-methyl-4-phenoxybenzoyl)glycyl)pyrrolidine-2-carboxamide]	< 0.1
C[C@@H]1C[C@@H](C(=O)N[C@H](C)c2cc(C(=N)N)cs2)N(C(=O)CNC(=O)c2ccc3c(c2)-c2ccccc2C3(F)F)C1 [Compound 62, (2S,4R)—N—((R)-1-(4-carbamimidoylthiophen-2-yl)ethyl)-1-((9,9-difluoro-9H-fluorene-3-carbonyl)glycyl)-4-methylpyrrolidine-2-carboxamide]	< 0.1

Same assay, conditions: Human complement C1s enzyme 1.16 nM, substrate Z-L-Lys-SBzl 100 μM, assay of Example 3; read-out: IC50 (Stars)

IC50 [µM]	SMILES
< 0.1	C[C@@H](NC(=O)[C@@H]1C[C@@H](S(C)(=O)=O)CN1C(=O)CNC(=O)c1ccc2c(c1)sc1ccccc12)c1cc(C(=N)N)cs1 [Compound 378, (2S,4R)—N—((R)-1-(4-carbamimidoylthiophen-2-yl)ethyl)-1-((dibenzo[b,d]thiophene-3-carbonyl)glycyl)-4-(methylsulfonyl)pyrrolidine-2-carboxamide]
< 0.1	C[C@@H](NC(=O)c1ccc(-c2ccccc2)cc1)C(=O)N1CC2(C[C@H]1C(=O)NCc1cc(C(=N)N)cs1)OCCO2 [Compound 302, (S)-7-(([1,1′-biphenyl]-4-carbonyl)-D-alanyl)-N-((4-carbamimidoylthiophen-2-yl)methyl)-1,4-dioxa-7-azaspiro[4.4]nonane-8-carboxamide]
< 0.1	C[C@@H](NC(=O)[C@@H]1CC2(CN1C(=O)CNC(=O)c1ccc3c(c1)-c1ccccc1S3(=O)=O)OCCO2)c1cc(C(=N)N)cs1 [Compound 261, (S)—N—((R)-1-(4-carbamimidoylthiophen-2-yl)ethyl)-7-((5,5-dioxidodibenzo[b,d]thiophene-2-carbonyl)glycyl)-1,4-dioxa-7-azaspiro[4.4]nonane-8-carboxamide]
< 0.1	C[C@@H](NC(=O)[C@@H]1C[C@@H](c2ccccc2)CN1C(=O)CNC(=O)c1ccc2oc3ccccc3c2c1)c1cc(C(=N)N)cs1 [Compound 218, (2S,4S)—N—((R)-1-(4-carbamimidoylthiophen-2-yl)ethyl)-1-((dibenzo[b,d]furan-2-carbonyl)glycyl)-4-phenylpyrrolidine-2-carboxamide]
< 0.1	C[C@@H](NC(=O)[C@@H]1C[C@](F)(CF)CN1C(=O)CNC(=O)c1ccc2c(c1)C(F)(F)c1ccccc1-2)c1cc(C(=N)N)cs1 [Compound 263, (2S,4R)—N—((R)-1-(4-carbamimidoylthiophen-2-yl)ethyl)-1-((9,9-difluoro-9H-fluorene-2-carbonyl)glycyl)-4-fluoro-4-(fluoromethyl)pyrrolidine-2-carboxamide]
< 0.1	N=C(N)c1csc(CNC(=O)[C@@H]2CC3(CN2C(=O)CNC(=O)c2ccc(-c4ccc(F)cc4F)o2)OCCO3)c1 [Compound 298, (S)—N-((4-carbamimidoylthiophen-2-yl)methyl)-7-((5-(2,4-difluorophenyl)furan-2-carbonyl)glycyl)-1,4-dioxa-7-azaspiro[4.4]nonane-8-carboxamide]
< 0.1	CC(C)S(=O)(=O)[C@@H]1C[C@@H](C(=O)N[C@H](C)c2cc(C(=N)N)cs2)N(C(=O)CNC(=O)c2ccc3c(c2)-c2ccccc2C3(F)F)C1 [Compound 280, (2S,4R)—N—((R)-1-(4-carbamimidoylthiophen-2-yl)ethyl)-1-((9,9-difluoro-9H-fluorene-3-carbonyl)glycyl)-4-(isopropylsulfonyl)pyrrolidine-2-carboxamide]
> 1	CC(=O)Nc1csc(CNC(=O)[C@@H]2CC3(CN2C(=O)CNC(=O)c2ccc(Oc4ccc(F)cc4)cc2)OCCO3)c1 [Compound 288, (S)-N-((4-acetamidothiophen-2-yl)methyl)-7-((4-(4-fluorophenoxy)benzoyl)glycyl)-1,4-dioxa-7-azaspiro[4.4]nonane-8-carboxamide]

Continued, compound first:

SMILES	IC50 [µM]
C[C@@H](NC(=O)[C@@H]1CC2(CN1C(=O)CN1Cc3ccc(-c4ccc(F)cc4F)cc3C1=O)OCCO2)c1cc(C(=N)N)cs1 [Compound 346, (S)—N—((R)-1-(4-carbamimidoylthiophen-2-yl)ethyl)-7-(2-(6-(2,4-difluorophenyl)-1-oxoisoindolin-2-yl)acetyl)-1,4-dioxa-7-azaspiro[4.4]nonane-8-carboxamide]	< 0.1
NC(=O)Nc1csc(CNC(=O)[C@@H]2CC3(CN2C(=O)CNC(=O)c2ccc(Oc4ccc(F)cc4)cc2)OCCO3)c1 [Compound 317, (S)-7-((4-(4-fluorophenoxy)benzoyl)glycyl)-N-((4-ureidothiophen-2-yl)methyl)-1,4-dioxa-7-azaspiro[4.4]nonane-8-carboxamide]	> 1
C[C@@H](NC(=O)[C@@H]1CC2(CN1C(=O)CNC(=O)c1ccc3c(c1)oc1ccccc13)OCCO2)c1cc(C(=N)N)cs1 [Compound 279, (S)—N—((R)-1-(4-carbamimidoylthiophen-2-yl)ethyl)-7-((dibenzo[b,d]furan-3-carbonyl)glycyl)-1,4-dioxa-7-azaspiro[4.4]nonane-8-carboxamide]	< 0.1
C[C@@H](NC(=O)[C@@H]1C[C@](F)(CF)CN1C(=O)CNC(=O)c1ccc2c(c1)Oc1ccccc1S2)c1cc(C(=N)N)cs1 [Compound 327, (2S,4R)—N—((R)-1-(4-carbamimidoylthiophen-2-yl)ethyl)-4-fluoro-4-(fluoromethyl)-1-((phenoxathiine-3-carbonyl)glycyl)pyrrolidine-2-carboxamide]	< 0.1
Cc1nc(F)ccc1-c1ccc(C(=O)NCC(=O)N2CC3(C[C@H]2C(=O)NCc2cc(C(=N)N)cs2)OCCO3)cc1 [Compound 211, (S)—N-((4-carbamimidoylthiophen-2-yl)methyl)-7-((4-(6-fluoro-2-methylpyridin-3-yl)benzoyl)glycyl)-1,4-dioxa-7-azaspiro[4.4]nonane-8-carboxamide]	< 0.1

Same assay, conditions: Human complement C1s enzyme 1.16 nM, substrate Z-L-Lys-SBzl; assay of Example 3; read-out: IC50 (Stars)

IC50 [µM]	SMILES
< 0.1	C[C@@H](NC(=O)[C@@H]1CC(c2ncco2)CN1C(=O)CNC(=O)c1ccc2c(c1)-c1ccccc1C2(F)F)c1cc(C(=N)N)cs1 (stereo partly drawn) [Compound 416, (S)—N—((R)-1-(4-carbamimidoylthiophen-2-yl)ethyl)-1-((9,9-difluoro-9H-fluorene-3-carbonyl)glycyl)-4-(oxazol-2-yl)pyrrolidine-2-carboxamide]
